Source: US10138254B2, “Bicyclic compounds as pest control agents” (BAYER CROPSCIENCE AKTIENGESELLSCHAFT, priority 2014, dated 2018)
Like-named read-outs stand apart in the source and are kept apart here.

Columns and labels:
[1] = log P by HPLC on reversed-phase (C18) columns, OECD Guideline 117; assay type: physicochemical; settings: reversed-phase (C18) HPLC column
Procedure: The log P values were determined in accordance with OECD Guideline 117 (EC Directive 92/69/EEC) by HPLC (high-performance liquid chromatography) using reversed-phase (RP) columns (C18), by the following methods: [a] The LC-MS determination in the acidic range is carried out at pH 2.7 with 0.1% aqueous formic acid and acetonitrile (contains 0.1% formic acid) as eluents; linear gradient from 10% acetonitrile to 95% acetonitrile. [b] LC-MS determination in the neutral range is effected at pH 7.8 with 0.001 molar aqueous ammonium hydrogencarbonate solution and acetonitrile as eluents; linear gradient from 10% acetonitrile to 95% acetonitrile. Calibration is carried out using unbranched alkan-2-ones (having 3 to 16 carbon atoms) with known log P values (log P values determined on the basis of the retention times by linear interpolation between two successive alkanones).

[2] = system: green peach aphid (Myzus persicae); assay: Myzus persicae spray test (bell pepper plants); assay type: in vivo; settings: application rate 4 ppm, after 6 days, 100% = all aphids killed
Procedure: Myzus persicae—Spray Test Solvent: 7 parts by weight of dimethylformamide Emulsifier: alkylaryl polyglycol ether To produce a suitable active ingredient formulation, 1 part by weight of active ingredient is dissolved with the specified parts by weight of solvent and made up with water containing an emulsifier concentration of 1000 ppm until the desired concentration is attained. To produce further test concentrations, the formulation is diluted with emulsifier-containing water. If the addition of ammonium salts or/and penetrants is required, these are each added in a concentration of 1000 ppm to the formulation solution. Bell pepper plants (Capsicum annuum) severely infested with the green peach aphid (Myzus persicae) are treated by spraying with the active ingredient formulation in the desired concentration. After 6 days, the kill in % is determined. 100% means that all of the aphids have been killed; 0% means that none of the aphids have been killed.

[3] = system: green peach aphid (Myzus persicae); assay: Myzus persicae spray test (Chinese cabbage leaf discs); assay type: in vivo; settings: Myzus persicae, foliar, 144 h, application rate 500 g/ha, after 6 days, 100% = all aphids killed, read-out: efficacy
Procedure: Myzus persicae—Spray Test Solvent: 78 parts by weight of acetone • • 1.5 parts by weight of dimethylformamide Emulsifier: alkylaryl polyglycol ether To produce a suitable active ingredient formulation, 1 part by weight of active ingredient is dissolved with the specified parts by weight of solvent and made up with water containing an emulsifier concentration of 1000 ppm until the desired concentration is attained. To produce further test concentrations, the formulation is diluted with emulsifier-containing water. Discs of Chinese cabbage leaves (Brassica pekinensis) infested by all stages of the green peach aphid (Myzus persicae) are sprayed with an active ingredient formulation of the desired concentration. After 6 days, the efficacy in % is determined. 100% means that all the aphids have been killed; 0% means that no aphids have been killed.

[4] = system: larvae of the mustard beetle (Phaedon cochleariae); assay: Phaedon cochleariae spray test (Chinese cabbage leaf discs); assay type: in vivo; settings: application rate 500 g/ha, after 7 days, 100% = all beetle larvae killed
Procedure: Phaedon cochleariae—Spray Test
Solvent: 78.0 parts by weight of acetone • • 1.5 parts by weight of dimethylformamide
Emulsifier: alkylaryl polyglycol ether
To produce a suitable active ingredient formulation, 1 part by weight of active ingredient is dissolved with the specified parts by weight of solvent and made up with water containing an emulsifier concentration of 1000 ppm until the desired concentration is attained. To produce further test concentrations, the formulation is diluted with emulsifier-containing water.
After 7 days, the efficacy in % is determined. 100% means that all the beetle larvae have been killed; 0% means that no beetle larvae have been killed.

[5] = acidic range, pH 2.7, 0.1% aqueous formic acid and acetonitrile, read-out: LogP[a]
[6] = neutral range, pH 7.8, 0.001 molar aqueous ammonium hydrogencarbonate and acetonitrile, read-out: logP[b]

SMILES | chromatographic logP [1, 5] | chromatographic logP [1, 6] | efficacy (kill) [2] [%] | pest or weed control at 500 g/ha [3] [%] | efficacy [4] [%]
Cc1cc(C)c([S+]([O-])CC(F)(F)F)cc1-c1cnc2nc(-c3ccc[n+]([O-])c3)sc2c1 (stereo not shown) [Example 21] | 1.91 | 1.86 | 100 |  | 
Cn1c(=O)cnn(-c2cnc3nc(-c4cccnc4)sc3c2)c1=O [Example 39, 4-Methyl-2-[2-(pyridin-3-yl)[1,3]thiazolo[4,5-b]pyridin-6-yl]-1,2,4-triazine-3,5(2H,4H)-dione] | 1.29 | 1.36 |  | 90 | 83
